Results on six compounds are retold here after the NIST ThermoML archive (doi:10.1021/je0341256).

Where “and” joins values, the source holds several entries; their conditions need not be identical. Identical values can stand only once. Numbers after ± are expanded uncertainties.

The conditions of the data set: Liquid, Closed cell (Static) method.

The term vapor or sublimation pressure denotes the equilibrium pressure above the liquid or solid. In the case of `CC(C)(C)O` [2-methylpropan-2-ol], the “vapor or sublimation pressure” value (332.06 K) came out at 36.97 ± 0.42 kPa.

`C/C=C/C` [(E)-2-butene]: the “vapor or sublimation pressure” value is, setting by setting: (332.04 K) 605.54 ± 2.1 kPa; (332.06 K) 605.74 ± 2.1 kPa; (332.07 K) 606.94 ± 2.1 kPa; (332.08 K) 606.44 ± 2.1 kPa and 606.14 ± 2.1 kPa.

For `CCC(C)O` (centres undefined) [butan-2-ol], the “vapor or sublimation pressure” value (332.08 K) is recorded as 17.27 ± 0.4 kPa. Take `CCO` [ethanol]: where the note is “332.06 K”, the “vapor or sublimation pressure” value amounted to 44.67 ± 0.43 kPa. Turning to `CO` [methanol], the “vapor or sublimation pressure” value (332.08 K) is recorded as 80.97 ± 0.48 kPa. For `CC(C)O` [propan-2-ol], the “vapor or sublimation pressure” value (332.03 K) was determined as 36.47 ± 0.42 kPa.
